Laboratory results: patent US9968084B2, “Synergistic herbicidal composition containing penoxsulam, triclopyr and imazethapyr” (Dow AgroSciences LLC, priority 2011, dated 2018)

Assays:
Experiment in all cases: Postemergence herbicidal activity of mixtures in the field (rice), visual weed control
Assay type in all cases: in vivo
[1] = test system: Brachiaria platyphylla (GRISEB.) NASH (BRAPP); details: imazamox 44 g ai/ha
Experimental: (§1) Evaluation of Postemergence Herbicidal Activity of Mixtures in the Field
(§2) Field trials were conducted in rice using standard herbicide small plot research methodology. Plot size was 2×6 meter (m) with 4 replicates per treatment. The rice crop was grown using normal cultural practices for fertilization, seeding, watering, flooding and maintenance to ensure good growth of the crop and the weeds.
(§3) All treatments in the field trials were applied using a compressed air backpack sprayer calibrated to apply 187 liters per hectare (L/ha) spray volume. Commercially available products of the premix penoxsulam plus triclopyr (GraspXTRA® herbicide, trademark of Dow AgroSciences LLC) and imazethapyr or imazamox were mixed in water at appropriately formulated product rates to achieve the desired rates based on a unit area of application (hectare) to achieve the desired rates as shown. The GraspXTRA herbicide is a product that contains 0.25 lb penoxulam and 2.06 lb triclopyr triethylamine salt (1.5 lb acid equivalent) per gallon, so the weight ratio of the penoxulam to triclopyr acid equivalent is 1:6. Imazethapyr was used as Newpath 240 SL. imazamox was used as Beyond 120 SL. Treatments were rated at 15 to 63 days after application as compared to the untreated control plants. Visual weed control was scored on a scale of 0 to 100 percent where 0 corresponds to no injury and 100 corresponds to complete kill.
(§4) All treatment results, both for the single premix product, the single entity product and mixtures, are an average of 4 replicates and the tank mix interactions are significant at the […] level.
(§5) Colby's equation was used to determine the herbicidal effects expected from the mixtures (Colby, S. R. Calculation of the synergistic and antagonistic response of herbicide combinations. Weeds 1967, 15, 20-22.).
(§6) The following equation was used to calculate the expected activity of mixtures containing two active ingredients, A and B: Expected=A+B−(A×B/100)
(§7) A=observed efficacy of active ingredient A at the same concentration as used in the mixture.
(§8) B=observed efficacy of active ingredient B at the same concentration as used in the mixture.
(§9) All comparisons are an average of 4 replicates and are significant at the […] level. Rates of penoxsulam, triclopyr and imazethapyr or imazamox are expressed in grams active ingredient/hectare (g ai/ha).

[2] = test system: Echinochloa crus-galli (ECHCG)
Experimental: as §1, §2, §3, §4, §5, §6, §7, §8, §9

[3] = test system: Caperonia palustris ST.-HIL. (CNPPA); details: imazamox 44 g ai/ha
Experimental: as §1, §2, §3, §4, §5, §6, §7, §8, §9

Setaria spp. (SETSS) = details: imazethapyr 70 g ai/ha
Experimental: as §1, §2, §3, §4, §5, §6, §7, §8, §9

Structure (SMILES)	% Control 41 DAA BRAPP Ob [1]	% Control 43 DAA ECHCG Ob ([2]; imazamox 44 g ai/ha, 43 DAA)	% Control 43 DAA CNPPA Ob [3]	% Control 15DAA SETSS Ob (Setaria spp. (SETSS); 15 DAA)	% Control 63DAA SETSS Ob (Setaria spp. (SETSS); 63 DAA)	% Control 15DAA ECHCG Ob ([2]; imazethapyr 70 g ai/ha, 15 DAA)	% Control 63DAA ECHCG Ob ([2]; imazethapyr 70 g ai/ha, 63 DAA)
COCc1cnc(C2=NC(C)(C(C)C)C(=O)N2)c(C(=O)O)c1 (stereo not shown) [Imazamox, 2-[4,5-dihydro-4-methyl-4-(1-methylethyl)-5-oxo-1H-imidazol-2-yl]-5-(methoxymethyl)-3-pyridinecarboxylic acid]	61%	78%	0%				
CCc1cnc(C2=NC(C)(C(C)C)C(=O)N2)c(C(=O)O)c1 (stereo not shown) [Imazethapyr, 2-[4,5-dihydro-4-methyl-4-(1-methylethyl)-5-oxo-1H-imidazol-2-yl]-5-ethyl-3-pyridinecarboxylic acid]				69%	36%	69%	36%
